Experimental data as given in US7977352B2, “Triazolopyridine compounds useful for the treatment of degenerative and inflammatory diseases” (Galapagos NV, priority 2006, dated 2011).

Experiments:
[1] = test system: MMP1 expression by activated SFs; experiment: MMP assay proof of principle: MMP1 produced by complex trigger activated SFs; assay type: cell-based; settings: Homo sapiens, supernatant of THP-1 cells treated with TNF-a (50% diluted), 48 hrs, FIG. 3, read-out: IC50 value, reduction of MMP1 expression by SFs
Protocol: A 384-well format ELISA for measurement of MMP1 is developed. Various primary antibodies are tested, as well as various ELISA protocols. The following protocol is developed and validated to measure MMP1 levels in SF supernatant in 384 well plates: white Lumitrac 600 384 well plates (Greiner) are coated with 2 μg/mL anti-MMP1 antibody MAB1346 (Chemicon). The antibody is diluted in buffer 40 (1.21 g Tris base (Sigma), 0.58 g NaCl (Calbiochem) and 5 mL 10% NaN3 (Sigma) in 1 L milliQ water and adjusted to pH 8.5). After overnight incubation at 4° C., plates are washed with PBS (80 g NaCl, 2 g KCl (Sigma), 11.5 g Na2HPO4.7H2O and 2 g KH2PO4 in 10 L milliQ; pH 7.4) and blocked with 100 μL/well Casein buffer (2% Casein (VWR International) in PBS). Next day, casein buffer is removed from ELISA plates and replaced by 50 μL/well EC buffer (4 g casein, 2.13 g Na2HPO4 (Sigma), 2 g bovine albumin (Sigma), 0.69 g NaH2PO4.H2O (Sigma), 0.5 g CHAPS (Roche), 23.3 g NaCl, 4 mL 0.5 M EDTA pH 8 (Invitrogen), 5 mL 10% NaN3 in 1 L milliQ and adjusted to pH 7.0). 0.25 mM DTT (Sigma) is added to the thawed sample plates. After removal of the EC buffer, 20 μL of sample is transferred to the ELISA plates. […] Readout is performed on the Luminoscan Ascent Luminometer (Labsystems) with an integration time of 200 msec or with an Envision reader (Perkin Elmer). […]

[2] = test system: MMP1 expression by activated synovial fibroblasts (RASFs); experiment: MMP assay: MMP1 expression by RASFs triggered with TNF-α (MMP1 ELISA); assay type: cell-based; settings: Fibroblast, 48 h, TNF-α trigger 10 ng/mL, semi-quantitative score, read-out: REDUCTION MMP1/TNFa
Protocol: A 384-well format ELISA for measurement of MMP1 is developed. Various primary antibodies are tested, as well as various ELISA protocols. The following protocol is developed and validated to measure MMP1 levels in SF supernatant in 384 well plates: white Lumitrac 600 384 well plates (Greiner) are coated with 2 μg/mL anti-MMP1 antibody MAB1346 (Chemicon). The antibody is diluted in buffer 40 (1.21 g Tris base (Sigma), 0.58 g NaCl (Calbiochem) and 5 mL 10% NaN3 (Sigma) in 1 L milliQ water and adjusted to pH 8.5). After overnight incubation at 4° C., plates are washed with PBS (80 g NaCl, 2 g KCl (Sigma), 11.5 g Na2HPO4.7H2O and 2 g KH2PO4 in 10 L milliQ; pH 7.4) and blocked with 100 μL/well Casein buffer (2% Casein (VWR International) in PBS). Next day, casein buffer is removed from ELISA plates and replaced by 50 μL/well EC buffer (4 g casein, 2.13 g Na2HPO4 (Sigma), 2 g bovine albumin (Sigma), 0.69 g NaH2PO4.H2O (Sigma), 0.5 g CHAPS (Roche), 23.3 g NaCl, 4 mL 0.5 M EDTA pH 8 (Invitrogen), 5 mL 10% NaN3 in 1 L milliQ and adjusted to pH 7.0). 0.25 mM DTT (Sigma) is added to the thawed sample plates. After removal of the EC buffer, 20 μL of sample is transferred to the ELISA plates. After overnight incubation at 4° C. plates are washed twice with PBS and once with PBST (PBS with 0.05% Tween-20 (Sigma)) and incubated with 35 μL/well biotinylated anti-MMP1 antibody solution (R&D). This secondary antibody is diluted in buffer C (0.82 g NaH2PO4.H2O, 4.82 g Na2HPO4, 46.6 g NaCl, 20 g bovine albumin and 4 mL 0.5M EDTA pH 8 in 2 L milliQ and adjusted to pH 7.0) at a concentration of 5 μg/mL. After 2 h of incubation at RT, plates are washed as described above and incubated with 50 μL/well streptavidin-HRP conjugate (Biosource). Streptavidin-HRP conjugate is diluted in buffer C at a concentration of 0.25 μg/mL. After 45 min, plates are washed as described above and incubated for 5 min with 50 μL/well BM Chem ELISA Substrate (Roche). Readout is performed on the Luminoscan Ascent Luminometer (Labsystems) with an integration time of 200 msec or with an Envision reader (Perkin Elmer).
SFs were acquired at passage 1 from a commercial supplier (Cell applications, Inc.). SFs are cultured in DMEM supplemented with 10% heat-inactivated FBS, 1× penicillin/streptomycin (Invitrogen) at 37° C., 10% CO2 until passage 6. Aliquots of the cells are frozen and cryopreserved in liquid nitrogen. Starting from a cryopreserved aliquot, cells are further expanded by sub-culturing cells at 1/3 ratio every week. Cells between passage 10 and 12 are routinely used in compound testing according to following protocol.
Starting from the compound master stocks (all at 10 mM concentration in 100% DMSO) a 3-fold serial dilution is made in 96-well plates in 100% DMSO. Then, plates are further diluted 45-fold in M199 medium supplemented with 1% heat-inactivated FBS to obtain a intermediate work stock.
At day 1, RASFs are seeded in 96 well plates (flat bottom, tissue culture treated, Greiner) at a density of 3000 cells/well in complete synovial growth medium (Cell Applications). Day 5, the medium is completely removed from the cells, and replaced by 81 μL of M199 medium supplemented with 1% heat-inactivated FBS followed by addition of 10 μL compound out of the intermediate work stock. After an incubation period of 90 minutes, which allows the compounds to equilibrate and enter the cells, cells are stimulated with either TNF-α or ‘complex trigger’. TNF-α trigger is added in a volume of […] to obtain final concentration of 10 ng/mL. For that, TNF-α stock (PeproTech) at 10 μg/mL was diluted to 100 ng/mL TNF-a in M199 medium supplemented with 1% FBS. ‘Complex trigger’ mix is added in a volume of 20 μL to obtain a final concentration of 12.5%. For that, ‘complex trigger’ mix, is diluted to 80% with M199 medium supplemented with 1% FBS. […]

TAK1-TAB1 fusion protein = molecular target: T1, TAK1-TAB1 fusion protein (Homo sapiens, UniProt O43318); experiment: In vitro TAK1 kinase assay; assay type: biochemical; settings: casein substrate, [33P]-γ-ATP, 90 minutes at 30° C., semi-quantitative score, read-out: POTENCY TAK1 (MAP3K7)
T1 construct: purchased Upstate 14-600
T1 sequence (O43318 with tags, fused parts or gaps limits assumed): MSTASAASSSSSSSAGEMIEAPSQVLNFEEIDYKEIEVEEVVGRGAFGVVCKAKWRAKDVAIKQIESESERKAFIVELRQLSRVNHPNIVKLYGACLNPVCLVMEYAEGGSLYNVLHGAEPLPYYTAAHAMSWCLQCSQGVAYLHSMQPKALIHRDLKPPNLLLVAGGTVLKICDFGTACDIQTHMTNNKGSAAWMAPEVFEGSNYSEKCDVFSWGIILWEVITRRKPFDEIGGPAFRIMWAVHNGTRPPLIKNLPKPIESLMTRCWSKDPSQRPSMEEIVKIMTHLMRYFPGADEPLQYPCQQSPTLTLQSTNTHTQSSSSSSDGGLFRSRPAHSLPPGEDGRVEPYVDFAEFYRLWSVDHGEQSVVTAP
Protocol: For assessing TAK1 inhibition, active TAK1-TAB1 fusion protein was used from Upstate (Cat. No, 14-600). Kinase reactions are set up in 96-well polypropylene plates in 25 μL containing 0.5 mU TAK1-TAB1 fusion protein, 5mM ATP, 0.01 μCi/μL [^33P]-γ-ATP, 0.1 mg/mL casein substrate in 1× reaction buffer containing 10 mM MOPS pH 7.0, 1 mM EDTA.
Starting from the compound master stocks (all at 10 mM concentration in 100% DMSO) a 3-fold serial dilution is made in 96-well plates in 100% DMSO. Plates are further diluted […] in H2O containing 3.5% DMSO, to obtain an intermediate work stock with compounds at 5× the final assay concentration in 5% DMSO.
5 μL of the intermediate stock is transferred into V-bottom 96 well polypropylene plates and 11 μL of Enzyme mix is added. Enzyme mix is made by combining 5 μL 5× reaction buffer ([…] pH 7.0, 1 mM EDTA), 5 μL casein (Sigma) diluted in H20 to 0.5 mg/mL and 1 μL of TAK1-TAB1 fusion protein that was prediluted to 0.5 mU/μL in 1× enzyme dilution buffer (20 mM MOPS pH 7.0, 0.1 mM EDTA, 0.01% Brij-35, 5% glycerol, 1 mM DTT, 1 mg/ml BSA).
The reactions are started by the addition of 9 μL of mixture containing ATP (20.83 uM) and [^33P]-γ-ATP (0.028 μCi/μL).
The assay is stopped 90 minutes after incubation at 30° C. by the addition of 25 μL phosphoric acid (150 mM). The label incorporated into the casein substrate is separated from labeled unincorporated ATP by filtration onto 96-well filter plates using a harvester device. After 6 washes with 75 mM phosphoric acid, the bottom of the filter plates are sealed, and incorporated label is quantified after addition of 40 μL scintillation fluid using TopCount.

SMILES	IC50 [1] [µM]	IC50 [2] [µM]	IC50 (TAK1-TAB1 fusion protein) [µM]
C[C@@H]1C[C@H]2[C@@H]3CCC4=CC(=O)C=C[C@]4(C)[C@@]3(F)[C@@H](O)C[C@]2(C)[C@@]1(O)C(=O)CO [dexamethasone]	~0.001		
CCCN1CCN(c2ccc(Nc3ccc(-c4ccc(C(N)=O)cc4)n4ncnc34)cc2)CC1 [Example 13, 4-(8-{[4-(4-propylpiperazin-1-yl)phenyl]amino}[1,2,4]triazolo[1,5-a]pyridin-5-yl)benzamide]		> 10	< 0.5
COc1cc(-c2ccc(Nc3ccc(N4CCN(C5CCCCC5)CC4)cc3)c3ncnn23)ccn1 [Example 32, N-[4-(4-cyclohexylpiperazin-1-yl)phenyl]-5-(2-methoxypyridin-4-yl)[1,2,4]triazolo[1,5-a]pyridin-8-amine]		5 to 10	> 10
O=c1cc(-c2ccc(Nc3ccc(N4CCNCC4)cc3)c3ncnn23)cc[nH]1 [Example 33, 4-{8-[(4-piperazin-1-ylphenyl)amino][1,2,4]triazolo[1,5-a]pyridin-5-yl}pyridin-2(1H)-one]		1 to 5	< 0.5
c1nc2c(Nc3ccc(N4CCOCC4)cc3)ccc(-c3ccc4cc[nH]c4c3)n2n1 [Example 52, 5-(1H-indol-6-yl)-N-(4-morpholin-4-ylphenyl)[1,2,4]triazolo[1,5-a]pyridin-8-amine]		> 10	> 10
CCN1CCN(c2ccc(Nc3ccc(-c4ccnc(OC)c4)n4ncnc34)cc2)CC1 [Example 26, N-[4-(4-ethylpiperazin-1-yl)phenyl]-5-(2-methoxypyridin-4-yl)[1,2,4]triazolo[1,5-a]pyridin-8-amine]		1 to 5	> 10
C[C@@H]1CN(C)[C@@H](C)CN1c1ccc(Nc2ccc(-c3cc[nH]c(=O)c3)n3ncnc23)cc1 (racemic) [Example 10, rel-4-[8-({4-[(2R,5S)-2,4,5-trimethylpiperazin-1-yl]phenyl}amino)[1,2,4]triazolo[1,5-a]pyridin-5-yl]pyridin-2(1H)-one]		0.501 to 1	< 0.5
C[C@@H]1CN(c2ccc(Nc3ccc(-c4cc[nH]c(=O)c4)n4ncnc34)cc2)C[C@H](C)N1C [Example 57, 4-[8-({4-[(3R,5S)-3,4,5-trimethylpiperazin-1-yl]phenyl}amino)[1,2,4]triazolo[1,5-a]pyridin-5-yl]pyridin-2(1H)-one]		1 to 5	< 0.5
CCCN1CCN(c2ccc(Nc3ccc(-c4ccnc(OC)c4)n4ncnc34)cc2)CC1 [Example 27, 5-(2-methoxypyridin-4-yl)-N-[4-(4-propylpiperazin-1-yl)phenyl][1,2,4]triazolo[1,5-a]pyridin-8-amine]		1 to 5	> 10
